Measured values from PubChem BioAssay AID463199 (Broad Institute, 2010).
Activity calls are given as the source filed them.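 How the source made its calls: active means AC50, the dose giving half-maximal effect, exceeds a fixed cutoff for a compound that rescues yeast growth under heat; inactive means the rest, inconclusive results apart.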

System: S. cerevisiae Burl-1 ts mutant growth, BacTiter-Glo, 38.5C 24 h
Test: growth induction of Burl-1 ts yeast mutant, dose response, counter-screen for SUMOylation pathway inhibitor project, whole organism, S. cerevisiae, luminescence (AID 463199)

Structure (SMILES) | AC50
C/C(=N\NC(=S)Nc1ccccc1)C1Cc2ccccc2C(=O)O1 (stereo not given) | > 42 µM (inactive)
Oc1c(Br)cc(Br)cc1/C=N/N1CCN(Cc2ccccc2)CC1 | > 42 µM (inactive)
CCOC(=O)c1sc2ncnc(N3CCN(c4ccc(OC)cc4)CC3)c2c1C | > 42 µM (inactive)
Cc1cc(C(=O)NNC(=O)c2ccc(C)s2)c(C)o1 | > 42 µM (inactive)
Cc1nnc(NC(=O)c2ccc(-c3cccc(C(F)(F)F)c3)o2)s1 | > 42 µM (inactive)
O=S(=O)(NCC1CCCN(Cc2ccccc2O)C1)c1cccc2cccnc12 (stereo not given) | > 42 µM (inactive)
O=c1c2ccccc2nc(SCc2nnc(-c3ccccc3)o2)n1-c1ccc(F)cc1F | > 42 µM (inactive)
O=c1c2ccccc2nc(COc2ccccc2)n1/N=C/c1cn[nH]c1-c1ccccc1 | > 42 µM (inactive)
C=C(C)Cn1c(N)cc(=O)nc1SCC(=O)Nc1cccc(C(F)(F)F)c1 | > 42 µM (inactive)
O=c1[nH]c(=O)n(C2CCCO2)cc1Br (stereo not given) | > 42 µM (inactive)
COC(=O)c1ccccc1NC(=O)c1cnn2c(C)cc(C)nc12 | > 42 µM (inactive)
C=CCNc1nnc(SC2CC(=O)N(c3ccc(OCCC)cc3)C2=O)s1 (stereo not given) | > 42 µM (inactive)
COC(=O)C(CC(C)C)NC(=O)CNC(=O)c1ccccc1C (stereo not given) | > 42 µM (inactive)
CC(C)(C)C(=O)NC1CCN(CC(=O)Nc2ccc3c(c2)OCO3)CC1 | > 42 µM (inactive)
Cc1c(Cl)cccc1NC(=O)Cn1c(CCC(=O)O)ccc1-c1ccccc1 | > 42 µM (inactive)
OC(c1ccccc1)(C1CCCCC1)C(CN1CCOCC1)c1ccccc1 (stereo not given) | > 42 µM (inactive)
CC(C)=CC(=O)N1CCCC(N2CCN(c3ccc(F)cc3)CC2)C1 (stereo not given) | 2.02 µM
COc1ccccc1N1CCN(C(=O)c2ccc(N3CCCCS3(=O)=O)cc2)CC1 | > 42 µM (inactive)
CC1CC(C)(C)N2C(=O)C3(Nc4ccccc4S3)c3cccc1c32 (stereo not given) | > 42 µM (inactive)
COc1ccc(-c2cc(C(F)(F)F)n3ncc(C(=O)O)c3n2)cc1OC | > 42 µM (inactive)

Structure (SMILES) | AC50
Cc1ccc2nc(SCC(=O)Nc3cccc(S(N)(=O)=O)c3)[nH]c2c1 | > 42 µM (inactive)
CCOC(=O)c1cnc2c(OC)cccc2c1N1CCN(c2ccccc2OC)CC1 | > 42 µM (inactive)
CN(C)CCNC(=O)c1c(O)c2c([nH]c1=O)CCCC2 | > 42 µM (inactive)
C=CCn1c(=N)c(C(=O)NCCCOC)cc2c(=O)n3ccccc3nc21 | > 42 µM (inactive)
COc1cc(C(=O)NCCOc2cc(C)cc(C)c2)cc(OC)c1OC | > 42 µM (inactive)
CCn1nccc1C(=O)Nc1nccs1 | > 42 µM (inactive)
CCN1CCN(CC(=O)Nc2cccc(C)c2C)C(=O)C1=O | > 42 µM (inactive)
Cc1sc2ncnc(Nc3ccccc3)c2c1C | > 42 µM (inactive)
O=C(CCNS(=O)(=O)c1cccc2nsnc12)NCCC1=CCCCC1 | > 42 µM (inactive)
O=C(CCCCCn1c(=O)[nH]c2ccsc2c1=O)NCc1ccc(F)cc1 | > 42 µM (inactive)
CC(C)(C)c1ccc(C(=O)COC(=O)CN2C(=O)NC3(CCCC3)C2=O)cc1 | > 42 µM (inactive)
O=C(COC(=O)c1c(F)cccc1F)c1ccc[nH]1 | > 42 µM (inactive)
O=C(Nc1cccc(C(=O)Nc2ccc(F)cc2F)c1)c1ccccc1 | > 42 µM (inactive)
COc1nc(-c2ccccc2)ccc1-c1noc(-c2ccccc2)n1 | > 42 µM (inactive)
CCOC(=O)CSc1nc2ccccc2c(=O)n1CC(C)C | > 42 µM (inactive)
O=C(NCCc1cnccn1)C1CCC(=O)N(Cc2ccc(Cl)cc2)C1 (stereo not given) | > 42 µM (inactive)
COc1ccc(NC2CCCN(C(=O)CCc3scnc3C)C2)cc1 (stereo not given) | > 42 µM (inactive)
CC(C)C(NC(=O)c1ccccc1)C(=O)NCC(c1ccccc1)N(C)C (stereo not given) | > 42 µM (inactive)
Cc1cccc(OCC(O)CN2C(C)(C)CC(O)CC2(C)C)c1 (stereo not given) | > 42 µM (inactive)
CCC(C)(C)n1nnnc1C(c1ccc(OC)c(OC)c1)N1CCN(c2cccc(OC)c2)CC1 (stereo not given) | > 42 µM (inactive)
